The values that follow are results of earlier work, collected in patent publication US20120252835A1, “STABLE TEMSIROLIMUS COMPOSITION AND PROCESS OF PREPARING SAME” (ASTRON RESEARCH LIMITED, priority 2011, published 2012).

Take “Rapamycin, 42-[3-hydroxy-2-(hydroxymethyl)-2-methylpropanoate] [Temsirolimus]”: the “Solubility in alcohols acceptable for parenteral administration” value (ethanol, propylene glycol, polyethylene glycol and the likes) was “soluble”. Besides, where the note is “water”, the Solubility in water result was “practically insoluble”.
